Experimental data from PMC10177692, “Novel topoisomerase II/EGFR dual inhibitors: design, synthesis and docking studies of naphtho[2′,3′:4,5]thiazolo[3,2-a]pyrimidine hybrids as potential anticancer agents with apoptosis inducing activity” (Journal of Enzyme Inhibition and Medicinal Chemistry, 2023).
Where two headings read alike, the source gives them in different places. Each block holds one molecule with its values, some of them ahead of it.

How the values were obtained:
[1] = system: Bcl-2; test: Bcl-2 level ELISA in MCF-7 cells; type: cell-based, human; details: for Bcl-2 Conc.(ng/ml): MCF-7, at IC50, 24 h, control 6.56 ± 0.22; for Bcl-2 FLD: MCF-7, at IC50, fold of control cells
Procedure: (§1) MCF-7 cells were cultured in DMEM supplied with 10% FBS and incubated in 5% CO2 in air at 37 °C. […] Cell lysate was diluted using standard diluent buffer over the range of assay. Bax and Bcl-2 content in the lysate was assessed using human Bax ELISA kit (DRG, USA) and Bcl-2 ELISA Kit (Zymed Laboratories, Invitrogen Immuno-detection, Canada), respectively, according to the manufacturer’s instructions for each kit. The results were expressed as Mean ± SE of three independent experiments.

[2] = system: caspase-7; test: Caspase-7 ELISA in MCF-7 cells; type: cell-based, human; details: for Caspase 7 FLD: MCF-7, at IC50, fold of control; for Caspase 7 Conc.(ng/ml): MCF-7, at IC50, control 0.45 ± 0.03
Procedure: (§2) The effect of 6a, 6c and 6i hybrids on caspase-7 and −9 levels in MCF-7 cell line was measured using Human Caspase-7 ELISA Kit (BioVision Inc., Milpitas, CA 95035 USA) and Human Caspase-9 ELISA Kit (EIA-4860, DRG, USA), respectively, and according to the manufacturer’s instructions. The results were expressed as Mean ± SE of three independent experiments.

[3] = system: caspase-9; test: Caspase-9 ELISA in MCF-7 cells; type: cell-based, human; details: for Caspase 9 Conc.(pg/ml): MCF-7, at IC50, control 4.51 ± 0.29
Procedure: as §2

[4] = target: T1, EGFR (Homo sapiens, UniProt P00533); test: EGFR kinase assay kit; type: biochemical; details: mean ± SE
T1 construct: purchased BPS Bioscience, San Diego, CA, USA
Procedure: The kinase activity of EGFR was assessed for 6a, 6c and 6i hybrids using EGFR kinase assay kit (BPS Bioscience, San Diego, CA, USA) based on the manufacturer’s instructions. Three independent experiments were performed for each compound and Mean ± SE were calculated.

[5] = system: p53; test: p53 level ELISA in MCF-7 cells; type: cell-based, human; details: for p53 FLD: MCF-7, at IC50, fold of control cells; for p53 Conc.(pg/ml): control 257 ± 19.1
Procedure: p53 level was determined in MCF-7 cell line using Human p53 ELISA Kit (Sigma Aldrich, St. Louis, MO, USA). The cells were lysed using cell extraction buffer. Cell lysate was diluted with standard diluent buffer, then added to p53 monoclonal antibody pre-coated 96-wells plate. The plate incubated for 2 h at room temperature. Anti-p53 detection antibody was added to the plate and re-incubated at room temperature for 1 h. The plate washed four times using wash buffer followed by addition of anti-rabbit IgG-Horseradish Peroxidase (HRP) working solution. The plate incubated at room temperature for 30 min. Chromogen TMB (tetramethylbenzidine) was added to induce colour reaction. The absorbance of the plate was read at 450 nm using microplate reader (Bio-Rad Laboratories, Hercules, CA, USA). Three independent experiments were performed for each compound and Mean ± SE were calculated.

[6] = system: MCF-7; test: MTT anti-proliferative assay; type: cell-based, human; details: for IC50: Homo sapiens, MCF7
Procedure: (§3) The culture media were supplemented with 10% heat inactivated foetal bovine serum (FBS, HyClone, Thermo Scientific) and antibiotics (100 U/ml penicillin and 100 µg/ml streptomycin, HyClone, Thermo Scientific). The cells were incubated in a humidified atmosphere containing 5% CO2 (Heracell VIOS CO2 incubator, Thermo Scientific) in air at 37 °C.
(§4) MTT reagent, at volume equal to 10% of the culture medium volume, was added to the cultured cells and to the blank wells. The culture plates were re-incubated for 2–4 h depending on cell type and density. After the incubation period, culture plates were restored from the incubator and the obtained formazan crystals were dissolved in acidified isopropanol with continuous shaking using plate shaker (MaxQ 2000, Thermo Fisher Scientific Inc., MI, USA) at room temperature. Absorbance was measured spectrophotometrically at wavelength 570 nm using a plate reader (Stat FaxR 4200, Awareness Technology, Inc., FL, USA). […] Three independent experiments were performed for each compound and Mean ± SE were calculated.

[7] = system: HCT-116; test: MTT anti-proliferative assay; type: cell-based, human; details: for IC50: Homo sapiens, HCT-116, MTT, 24 h, mean ± SE of three experiments, read-out: IC50 (µM) ± S.E. HCT-116
Procedure: as §3, §4

[8] = system: A549; test: MTT anti-proliferative assay; type: cell-based, human; details: for IC50: Homo sapiens, A549, MTT, 24 h, mean ± SE of three experiments, read-out: IC50 (µM) ± S.E. A549
Procedure: as §3, §4

[9] = system: MCF-7 cells; test: Annexin V-FITC/PI staining assay; type: cell-based, human; design: Apoptosis Total / Apoptosis Early / Apoptosis Late / Necrosis: unit not given here; details: for increase in cell necrosis compared to control / increase of cell population in early apoptotic stage compared to control / increase of late apoptotic cell population compared to control: MCF-7, at IC50; for Apoptosis Late / Apoptosis Early / Necrosis / Apoptosis Total: MCF-7, at IC50, 24 h; for Apoptosis Late: control 0.15; for Apoptosis Early: control 0.38; for Necrosis: control 1.36; for Apoptosis Total: control 1.89
Procedure: Cells underwent three washing cycles using ice cold PBS, then suspended in PBS. Cell apoptosis was detected by Annexin V-FITC Apoptosis Detection Kit (BioVisionResearch Products, USA). The cells were stained using PI staining solution, Annexin V-FITC and incubated for 15 min at room temperature in a dark place. Cells were investigated by flow cytometry (Ex = 488 nm; Em = 530 nm) using FACS calibre (Becton Dickinson, Heidelberg, Germany)[48].

[10] = system: Bax; test: Bax level ELISA in MCF-7 cells; type: cell-based, human; details: for Bax Conc.(pg/ml): MCF-7, at IC50, 24 h, control 83.16 ± 6.2; for Bax FLD: MCF-7, at IC50, fold of control cells
Procedure: as §1

[11] = system: MCF-7 cells; test: In vitro DNA flow cytometry (cell cycle analysis); type: cell-based, human; details: MCF-7, at IC50, 24 h; for DNA content %Pre-G1: control 1.89; for DNA content %G2/M: control 7.68; for DNA content %S: control 35.09; for DNA content %G0-G1: control 57.23
Procedure: MCF-7 cells were seeded at density of 2 × 10^5 into each well of a 6-well plate. The cells were maintained in Dulbecco’s Modified Eagle’s Medium (DMEM), supplied with 10% foetal bovine serum, and incubated in a humidified atmosphere containing 5% CO2 in air for 24 h at 37 °C. The incubation medium was replaced with a fresh one containing the synthesised hybrids 6a and 6i at their IC50 in DMSO (1% v/v). The cell plates were incubated for 24 h. The cells were washed twice with cold phosphate buffered saline (PBS) then fixed with 70% ice-cold ethanol. Cells washed with PBS at 37 °C for 30 min and recovered by centrifugation at 2000 rpm for 5 min. Cells were stained using DNA fluorochrome propidium iodide (PI). The plates were incubated at room temperature for 20 min in a dark place. Then the cells were investigated with a FACS Calibre flow cytometer (Becton Dickinson, Heidelberg, Germany)[48].

[12] = MCF-7, concentration used for treatment, read-out: IC50 µM (Table 4)
[13] = MCF-7, concentration used for treatment, read-out: IC50 (Table 2)
[14] = MCF-7, concentration used for treatment, read-out: IC50 (Table 3)
[15] = MTT, 24 h, mean ± SE of three experiments, read-out: IC50 (µM) ± S.E. MCF-7

T1 sequence (P00533 25-1210): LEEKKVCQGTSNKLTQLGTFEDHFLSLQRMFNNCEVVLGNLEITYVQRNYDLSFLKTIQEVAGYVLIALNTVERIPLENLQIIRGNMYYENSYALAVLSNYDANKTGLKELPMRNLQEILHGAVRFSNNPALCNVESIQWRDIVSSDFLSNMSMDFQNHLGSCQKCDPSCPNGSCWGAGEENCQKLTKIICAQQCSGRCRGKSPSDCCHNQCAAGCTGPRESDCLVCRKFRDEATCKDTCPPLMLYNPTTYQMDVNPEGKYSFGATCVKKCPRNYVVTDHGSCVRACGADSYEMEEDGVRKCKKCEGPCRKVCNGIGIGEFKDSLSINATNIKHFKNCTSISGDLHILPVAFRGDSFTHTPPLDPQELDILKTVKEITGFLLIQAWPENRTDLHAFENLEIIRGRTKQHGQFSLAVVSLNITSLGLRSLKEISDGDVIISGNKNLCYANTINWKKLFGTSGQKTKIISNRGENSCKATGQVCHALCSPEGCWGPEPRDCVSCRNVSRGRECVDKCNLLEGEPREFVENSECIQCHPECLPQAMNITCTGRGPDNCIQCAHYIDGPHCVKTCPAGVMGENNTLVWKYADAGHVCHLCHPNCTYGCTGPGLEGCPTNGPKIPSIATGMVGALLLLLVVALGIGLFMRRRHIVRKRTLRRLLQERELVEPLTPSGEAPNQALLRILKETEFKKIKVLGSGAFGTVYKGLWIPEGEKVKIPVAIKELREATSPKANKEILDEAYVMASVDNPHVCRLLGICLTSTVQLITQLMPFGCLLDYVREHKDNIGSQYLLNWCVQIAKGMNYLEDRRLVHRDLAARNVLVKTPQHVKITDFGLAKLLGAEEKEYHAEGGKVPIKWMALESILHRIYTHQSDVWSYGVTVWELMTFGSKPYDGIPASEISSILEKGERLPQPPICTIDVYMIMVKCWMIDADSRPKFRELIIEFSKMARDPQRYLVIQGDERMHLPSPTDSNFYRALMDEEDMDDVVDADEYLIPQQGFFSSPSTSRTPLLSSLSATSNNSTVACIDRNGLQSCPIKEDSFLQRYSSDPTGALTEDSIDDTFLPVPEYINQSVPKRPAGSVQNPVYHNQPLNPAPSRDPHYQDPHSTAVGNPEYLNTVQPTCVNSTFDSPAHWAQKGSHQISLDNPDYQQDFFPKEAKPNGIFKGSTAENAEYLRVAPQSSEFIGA

IC50 ([4]; read-out: EGFR inhibitory activity IC50): 16 ± 0.47 nM
IC50 [6, 12]: 3.34 µM
IC50 [6, 13]: 3.34 µM
IC50 [6, 14]: 3.34 µM
IC50 [6, 15]: 3.34 ± 0.21 µM
IC50 [7]: 3.58 ± 0.24 µM
IC50 [8]: 2.81 ± 0.18 µM
Compound: COc1ccc(-c2nc3sc4c(n3c(=O)c2C#N)C(=O)c2ccccc2C4=O)cc1 [Compound 6a, 2–(4-Methoxyphenyl)-4,6,11-trioxo-6,11-dihydro-4H-naphtho[2′,3′:4,5]-thiazolo[3,2-a]pyrimidine-3-carbonitrile]
Bcl-2 Conc.(ng/ml) [1]: 3.99 ± 0.24 ng/mL
Bcl-2 FLD [1]: 0.61 fold
Caspase 7 FLD [2]: 14.93 fold
Caspase 7 Conc.(ng/ml) [2]: 6.72 ± 0.23 ng/mL
Caspase 9 FLD ([3]; MCF-7, at IC50, fold of control): 4.69 fold
Caspase 9 Conc.(pg/ml) [3]: 21.17 ± 0.38 pg/mL
p53 FLD [5]: 3.6 fold
p53 Conc.(pg/ml) ([5]; MCF-7, at IC50): 922 ± 37.5 pg/mL
increase in cell necrosis compared to control [9]: 6.78 folds
increase of cell population in early apoptotic stage compared to control [9]: 13.84 folds
increase of late apoptotic cell population compared to control [9]: 126.13 folds
Apoptosis Late [9]: 18.92
Apoptosis Early [9]: 5.26
Necrosis [9]: 9.23
Apoptosis Total [9]: 33.41
Bax Conc.(pg/ml) [10]: 436.1 ± 5.1 pg/mL
Bax FLD [10]: 5.24 fold
DNA content %Pre-G1 [11]: 33.41%
DNA content %G2/M [11]: 34.78%
DNA content %S [11]: 28.94%
DNA content %G0-G1 [11]: 36.28%

Compound: N#Cc1c(-c2ccc([N+](=O)[O-])cc2)nc2sc3c(n2c1=O)C(=O)c1ccccc1C3=O [Compound 6i, 2–(4-Nitrophenyl)-4,6,11-trioxo-6,11-dihydro-4H-naphtho[’',’':4,5]thiazolo-[3,2-a]pyrimidine-3-carbonitrile]
Bcl-2 Conc.(ng/ml) [1]: 3.64 ± 0.08 ng/mL
Bcl-2 FLD [1]: 0.55 fold
Caspase 7 FLD [2]: 20.41 fold
Caspase 7 Conc.(ng/ml) [2]: 9.20 ± 0.87 ng/mL
Caspase 9 Conc.(pg/ml) [3]: 32.29 ± 0.33 pg/mL
EGFR inhibitory activity IC50 [4]: nearly equipotent to that of erlotinib
increase in p53 level compared to Dox treated cells ([5]; MCF-7, at IC50): 1.2 fold
p53 FLD [5]: 5 fold
p53 Conc.(pg/ml) ([5]; MCF-7, at IC50): 1285 ± 29.9 pg/mL
IC50 [6, 12]: 1.79 µM
IC50 [6, 13]: 1.79 µM
IC50 [6, 14]: 1.79 µM
IC50 [6, 15]: 1.79 ± 0.11 µM
fold superior activity than Dox ([6]; MCF-7, ratio of IC50 values): 3.13 fold
fold the activity of erlotinib ([6]; MCF-7, ratio of IC50 values): 4.05 fold
fold superior activity than Dox ([7]; HCT-116, ratio of IC50 values): 2.96 fold
fold the activity of erlotinib ([7]; HCT-116, ratio of IC50 values): 3.77 fold
IC50 [7]: 2.29 ± 0.18 µM
fold superior activity than Dox ([8]; A549, ratio of IC50 values): 3.19 fold
fold the activity of erlotinib ([8]; A549, ratio of IC50 values): 3.35 fold
IC50 [8]: 1.55 ± 0.13 µM
increase in cell necrosis compared to control [9]: 10.52 folds
increase of cell population in early apoptotic stage compared to control [9]: 9.57 folds
increase of late apoptotic cell population compared to control [9]: 182.06 folds
Apoptosis Late [9]: 27.31
Apoptosis Early [9]: 3.64
Necrosis [9]: 14.31
Apoptosis Total [9]: 45.26
Bax Conc.(pg/ml) [10]: 581.5 ± 8.7 pg/mL
Bax FLD [10]: 6.99 fold
DNA content %Pre-G1 [11]: 45.26%
DNA content %G2/M [11]: 2.89%
DNA content %S [11]: 51.17%
DNA content %G0-G1 [11]: 45.94%
